Measured values reported in publication PMC10627047, “Flavone-based dual PARP-Tubulin inhibitor manifesting efficacy against endometrial cancer” (Journal of Enzyme Inhibition and Medicinal Chemistry, 2023).
Values joined by “and” are separate entries in the source; they are usually repeats but may differ in a detail not shown here. Identical values can stand only once.

Columns and labels:
[1] = tested on: CDK1 protein in Ishikawa cells; assay: Western blotting, cell cycle proteins; type: cell-based, human; details: 24 h treatment
Experimental: Western blot analysis was performed to assess the involvement of proteins in the cell cycle arrest effects of compound 14 on Ishikawa cells.
(§1) Ishikawa cells were treated with compound-14 at 100, 500, and 1000 nM concentrations for 24 h. After 24h cells were collected and centrifuged at 400 g, washed in PBS and cell pellets were lysed in RIPA buffer in preparation of the whole cell lysate. Supernatants were collected and proteins were estimated using the Bradford reagent. An equal amount of protein (60–80 µg) was loaded into each well for SDS-PAGE. Blocking was done with 5% BSA at room temperature with shaking for 2 h. After the SDS page run was completed, we washed the PVDF membrane and then blocking was done. Blots were incubated with different primary antibodies(1:1000 dilutions), and secondary antibodies (1:10 000 dilutions) and chemiluminescence was captured on Chemidoc after incubating the blots in ECL plus solution.
Primary Antibodies: LC3B Antibody (Cell signalling Technology, Cat No:2775), Cyclin B1 (Cell signalling Technology, Cat No:4138), SKP-2 (Cell signalling Technology, Cat No:4358), CDK1 (Abcam, Anti-CDK1 antibody [A17]), cdc25c (Cell signalling Technology, Cat No:4688); internal control: Actin (Sigma Aldrich, Cat No: A5441);

Ishikawa cells [2] = assay: Cell cycle analysis (flow cytometry); type: cell-based, human; details: 0.5 µM and 1 µM, 48 h, vs control group
Experimental: Furthermore, the regulatory effect of compound 14 in the cell cycle distribution of Ishikawa cancer cells was evaluated via flow cytometric analysis. Ishikawa cells seeded on a 6-well plate (3 × 10^5 cells/well) were treated with compound 14 for 48 h. After 48 h treatment of Ishikawa cells with compound 14, the cell cycle started to be arrested at the G2/M phase.
Cells were treated with compound 14 (10, 50, 100, 500 and 1000 nM) for […], collected and washed once with PBS. The pellet was then fixed in 70% ethanol overnight, followed by one washing with PBS and incubation with RNAse A for 90 min at 37 °C. Cells were then stained with PI and acquired in FACS. Analysis of the data was done by Modfit software (Verity Software House Inc., Topsham, ME) for the proportions of different cell cycle phases.[69]

LC3 in Ishikawa cells = assay: Western blotting, cleavage of LC-3; type: cell-based, human; details: Ishikawa cells, 100, 500 and 1000 nM, 24 h
Experimental: Literature precedents indicate that autophagy triggers the cleavage of tubulin-associated protein LC-3 yielding cytosolic LC3-I (18 kDa) and autophagosome-associated LC3-II (16 kDa).[50–58] Thus, the ability of compound 14 was evaluated to induce the cleavage of this cytosolic protein. […] Considering the aforementioned cleavage of cytosolic microtubule-associated protein light chain-3 (LC3)-I into LC3-II as an autophagy-specific marker, it was deduced that 14 is an autophagy inducer.
as §1, with “solution. […]” for “solution.”

Ishikawa cells [3] = assay: Mitochondrial membrane potential (rhodamine 123 staining); type: cell-based, human; details: Ishikawa cells, 0.1, 0.5 and 1 μM, 24 h
Experimental: Mitochondrial membrane potential was measured by rhodamine-123 (RH-123) staining. Ishikawa cells were treated at 0.1, 0.5, and 1 μM of compound 14. Rhodamine dyes accumulate within active and polarised mitochondria under physiological conditions, resulting in robust fluorescence signals. A decline in rhodamine fluorescence intensity is observed when the dyes fail to accumulate within the mitochondria. This happens when the mitochondrial transmembrane potential is compromised. […] The decreased fluorescence patterns associated with apoptotic cell death indicate progressive dissipation of the mitochondrial transmembrane potential (Figure 12).
Rhodamine staining was employed to investigate apoptosis induced by compound 14 in Ishikawa cells. Under physiological conditions, rhodamine dyes are known to accumulate within active and polarised mitochondria, resulting in robust fluorescence signals. However, when the mitochondrial transmembrane potential is compromised the dyes fail to accumulate within the mitochondria, leading to a decline in rhodamine fluorescence intensity. The Rhodamine staining protocol followed was as follows: Ishikawa cells were treated at 0.1, 0.5, and 1 μM for 24 h, and RH-123 (1 μg) (Cat No. R8004) was added 30 min before the termination of the experiment and then washed with PBS before analysis on a fluorescence microscope.[61]

PARP1 = target: T1, PARP1 (Homo sapiens, UniProt P09874); assay: PARP inhibitory assay (NAD/NADH-Glo endpoint, Reaction Biology); type: biochemical; details: 10-dose IC50, 3-fold serial dilution
T1 construct: Reaction Biology Corporation (assay service)
T1 sequence (P09874 whole entry): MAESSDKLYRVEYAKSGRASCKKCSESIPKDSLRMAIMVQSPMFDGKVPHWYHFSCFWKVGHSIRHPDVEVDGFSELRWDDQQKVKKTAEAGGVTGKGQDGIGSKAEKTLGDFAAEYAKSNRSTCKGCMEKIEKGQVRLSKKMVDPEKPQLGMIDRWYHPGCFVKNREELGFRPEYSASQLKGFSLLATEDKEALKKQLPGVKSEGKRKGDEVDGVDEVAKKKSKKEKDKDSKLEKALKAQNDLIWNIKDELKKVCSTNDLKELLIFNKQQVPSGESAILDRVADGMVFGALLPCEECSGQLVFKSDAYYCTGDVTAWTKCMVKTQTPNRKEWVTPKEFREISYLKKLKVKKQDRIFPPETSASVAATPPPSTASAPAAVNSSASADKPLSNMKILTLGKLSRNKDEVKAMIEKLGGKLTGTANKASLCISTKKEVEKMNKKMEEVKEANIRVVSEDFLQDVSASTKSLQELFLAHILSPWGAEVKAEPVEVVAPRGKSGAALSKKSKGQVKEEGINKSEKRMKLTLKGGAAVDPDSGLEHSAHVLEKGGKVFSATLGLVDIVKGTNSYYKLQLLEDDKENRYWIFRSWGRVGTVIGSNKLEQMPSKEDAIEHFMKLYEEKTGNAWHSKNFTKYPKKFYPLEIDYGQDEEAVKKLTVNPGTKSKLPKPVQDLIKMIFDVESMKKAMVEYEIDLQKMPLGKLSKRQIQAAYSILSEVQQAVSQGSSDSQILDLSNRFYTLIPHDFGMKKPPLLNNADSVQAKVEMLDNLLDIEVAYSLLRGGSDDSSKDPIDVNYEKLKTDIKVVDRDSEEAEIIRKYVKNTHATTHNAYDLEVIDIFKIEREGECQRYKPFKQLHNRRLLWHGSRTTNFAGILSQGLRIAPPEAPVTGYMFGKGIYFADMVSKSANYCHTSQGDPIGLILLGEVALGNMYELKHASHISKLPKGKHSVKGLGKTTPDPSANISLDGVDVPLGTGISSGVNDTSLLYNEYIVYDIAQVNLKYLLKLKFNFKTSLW
Experimental: (§2) As such, PARP enzymatic activity transfers ADP-ribose from NAD + substrate into the PAR chain on histone substrate. The amount of NAD + remaining after the enzymatic activity was quantified using the Promega NAD/NADH-Glo™ assay kit, in the endpoint PARP activity assay.
(§3) Enzyme inhibition assays were performed by the Reaction Biology Corporation, Malvern, PA. (http://www.reactionbiology.com). PARP enzymatic activity transfers ADP-ribose from NAD + substrate into the PAR chain on histone substrate. […] NAD+ (Nicotinamide Adenine Dinucleotide), 500 nM; Protein substrate for PARP1, core histones from chicken, 10 µg/mL; protein substrate for PARP2, 5 µM.

PARP2 = target: T2, PARP2 (Homo sapiens, UniProt Q9UGN5); assay: as above; type: biochemical; details: 10-dose IC50, 3-fold serial dilution
T2 construct: Reaction Biology Corporation (assay service)
T2 sequence (Q9UGN5 whole entry): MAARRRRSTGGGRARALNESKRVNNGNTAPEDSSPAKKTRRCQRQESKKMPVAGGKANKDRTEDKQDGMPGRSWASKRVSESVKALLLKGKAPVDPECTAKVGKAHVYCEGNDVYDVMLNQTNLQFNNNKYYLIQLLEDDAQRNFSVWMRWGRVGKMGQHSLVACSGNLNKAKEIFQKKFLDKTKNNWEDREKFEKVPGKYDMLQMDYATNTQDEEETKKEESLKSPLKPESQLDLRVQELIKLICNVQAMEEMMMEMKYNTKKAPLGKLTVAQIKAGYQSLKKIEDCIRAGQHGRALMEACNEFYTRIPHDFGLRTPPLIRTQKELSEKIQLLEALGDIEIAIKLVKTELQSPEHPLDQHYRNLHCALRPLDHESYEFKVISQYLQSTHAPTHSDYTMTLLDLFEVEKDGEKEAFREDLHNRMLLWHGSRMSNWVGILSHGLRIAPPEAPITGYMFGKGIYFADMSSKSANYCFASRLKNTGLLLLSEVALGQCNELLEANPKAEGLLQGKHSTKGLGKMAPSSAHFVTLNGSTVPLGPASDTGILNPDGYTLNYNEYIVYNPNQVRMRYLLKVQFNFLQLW
Experimental: as §2, §3

Ishikawa cells [4] = assay: Intracellular ROS (DCFDA staining); type: cell-based, human; details: Ishikawa cells, 100, 500 and 1000 nM, 24 h, vs untreated control
Source text: The intracellular ROS levels in control and compound 14-treated cells were examined using the DCFDA fluorescent dye.
Dichlorodihydrofluorescin diacetate (DCFHDA) is a fluorogenic dye that measures hydroxyl, peroxyl, and other reactive oxygen species (ROS) activity within the cell. The oxidative conversion of DCFH-DA to DCF (2′, 7′ -dichlorofluorescein) leads to the detection of intracellular ROS. As such, an increase in intracellular ROS is indicative of apoptosis in cancer cells Ishikawa cells were treated with compound-14 at 100, 500, and 1000 nM concentrations for 24 h. After 24h cells were stained with DCFHDA (20 µM) (Cat no, 287810) for 45 min. After 45 min, cells were washed with PBS buffer and analysed with a fluorescence microscope.

IC50 (PARP1): 74 nM and 74.6 nM
IC50 (PARP2): 109 nM
SMILES: O=c1cc(-c2ccc(F)cc2)oc2cc(-c3ccoc3)ccc12 [Compound 14, 2–(4-fluorophenyl)-7-(furan-3-yl)-4H-chromen-4-one]
Expression of CDK1 protein (western blot) [1]: downregulated the expression of CDK1 protein
Cell cycle distribution (G2/M phase arrest) (Ishikawa cells [2]): significant increase in G2/M phase cell cycle arrest
Cleavage of LC-3 (autophagy marker, western blot) (LC3 in Ishikawa cells): concentration-dependent cleavage of LC3
Mitochondrial membrane potential (rhodamine 123 fluorescence) (Ishikawa cells [3]): reduction in rhodamine fluorescence in a concentration-dependent manner
Intracellular ROS levels (DCFDA fluorescence) (Ishikawa cells [4]): significant increase in fluorescence intensity
